Data as given in article PMC6037852, “Design of Diarylheptanoid Derivatives as Dual Inhibitors Against Class IIa Histone Deacetylase and β-amyloid Aggregation” (Frontiers in Pharmacology, 2018).

Columns and labels:
SH-SY5Y cells = conditions: 100 μM; ref Luchtman et al., 2013; cited from earlier work
[1] = tested on: primary rat mesencephalic neurons; design: method as in Luchtman et al., 2013; conditions: 100 μM; ref Luchtman et al., 2013; cited from earlier work
Aβ1-42 = target: T1, Aβ1-42 (Homo sapiens, UniProt P05067); assay: Inhibition of Aβ1-42 self-aggregation, thioflavin-T (ThT) fluorescence assay; assay type: biochemical; conditions: 24 h; for IC50: read-out: Beta-Amyloid Aggregation IC50; for inhibition at 10 µM: single concentration of 10 μM, read-out: Beta-Amyloid Aggregation Inhibition (%)
T1 construct: Aβ1-42 peptides were purchased from Kelowna International Scientific Inc; purchased Kelowna International Scientific Inc
Protocol: Inhibition of Aβ1-42 self-aggregation was measured by thioflavin-T (ThT) fluorescence assay ([Hudson et al., 2009]). Aβ1-42 peptides were purchased from Kelowna International Scientific Inc. To avoid Aβ1-42 self-aggregation before the start of the experiment, Aβ1-42 peptides were dissolved in hexafluoroisopropanol (HFIP) to a concentration of 1 mM. The clear solution containing the dissolved peptide was then aliquoted in micro centrifuge tube. The solution was evaporated under vacuum to remove HFIP to give monomeric Aβ1-42. The monomeric Aβ1-42 was dissolved in NaOH(aq) (60 mM) to give a stock solution (1 mM). The Aβ1-42 stock solution was diluted with 50 mM phosphate buffer (containing 0.15 M NaCl, pH 7.4) before use. Fresh ThT stock solution was prepared by dissolving ThT (Sigma, T3516) in phosphate buffer and filtrated through […] Nylon syringe filter. The ThT stock solution and 400 mM ethylenediaminetetraacetic acid (EDTA) were diluted into the phosphate buffer to generate the working solution as background. A mixture of working solution (ThT final concentration: 10 μM), Aβ1-42 stock solution (Aβ1-42 final concentration: 10 μM) and the tested compounds were incubated on BioShake iQ ThermoMixer (37°C, 700 rpm) for 24 h. Fluorescence was measured by Victor 2X microplate spectrophotometer (excitation λ = 440 nm, emission λ = 486 nm), and adapted for 96-well microtiter plates. The fluorescence intensities were recorded and the percent inhibition due to the presence of the inhibitors were calculated by the following formula: (1 - IFi/IFc) × 100% where IFi and IFc were the fluorescence intensities obtained for Aβ1-42 in the presence and in the absence of inhibitors after subtracting the background, respectively. The IC50 values were calculated by the linear regression model of the data. All experiments were performed in triplicate.

T1 sequence (P05067 672-713 limits assumed): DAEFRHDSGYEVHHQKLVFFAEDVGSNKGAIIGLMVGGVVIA

SMILES	Cell viability of SH-SY5Y cells (SH-SY5Y cells) [%]	Viability of primary rat mesencephalic neurons [1]	IC50 (Aβ1-42) [µM]	inhibition at 10 µM (Aβ1-42) [%]
C[n+]1ccc(-c2ccccc2)cc1.[I-] [1-methyl-4-phenylpyridinium iodide]	80	roughly 75%	–	–
O=c1c(O)c(-c2ccc(O)cc2O)oc2cc(O)cc(O)c12 [Morin, morin, reference compound]	–	–	8.8 ± 0.7	56.9 ± 5.9
O=C(CCCCCCC(=O)Nc1ccccc1)NO [SAHA, suberoylanilide hydroxamic acid, reference compound]	–	–	> 10	-13.3 ± 1.8
